Assays:
HSV-2 = experiment: Spread of HSV-2 in infected cultures (glycoprotein E labeling); format: cell-based; details: 300 ng/ml applied 16 hr prior to virus inoculation
Experimental: The effect of AVP 893 on the spread of viral infection was further investigated. AVP 893 (at 300 ng/ml) was applied 16 hr prior to virus inoculation. Time points shown in FIG. 45 represent the hours after virus inoculation. […] In addition to the immunocytochemistry work shown in FIG. 45, extensive in vitro plaque assays were performed on HSV-1 and -2, as well as other families of virus that use the golgi in their life cycle (see Table 2).
We determined whether viral particles (as visualized in FIG. 45 by labeling HSV-2 glycoprotein E) spread beyond the initial site of infection in the presence of AVP 893. HSV-2-infected cultures were treated with AVP 893. […] Other HSV proteins including gB, gD, and the capsid protein ICP5 were also examined with similar results (data not shown). […] Furthermore, AVP 893 didn't appear to stop the initial infection of the culture, only the subsequent spread of the virus.

B16-F10 cells = experiment: PowerBlot screen of expression of over 950 proteins; format: cell-based, mouse; details: 100 ng/ml, 16 hr
Experimental: A second series of experiments tested the activity of AVP 893 on the expression of over 950 proteins by Western blotting in vitro (in triplicate); methods detailed below. B16 tumor cells were chosen for this screen and a 16 hour duration of AVP 893 treatment was selected to optimize the number of proteins that might be modified by drug. […] B16-F10 cells were cultured for 16 hr in the presence or absence of 100 ng/ml AVP 893. Samples were harvested and lysates prepared according to instructions supplied by Becton-Dickinson. Samples were placed on dry ice and submitted to the same for expression analysis of 950 proteins. […] Although both proteins have entirely different functions in the cell, and have not been linked (apparently) in the scientific literature, there is a rational explanation for the changes noted in each protein, as described below.

Rab6 = Rab6 expression; format: cell-based

## O=C(Nc1ccc(-c2nc3cc(NC(=O)C4CCCCC4)ccc3[nH]2)cc1)C1CCCCC1 [AVP 893]
HSV-2
  spread of HSV-2 beyond the initial site of infection: blocked the spread of HSV-2 virus particles
B16-F10 cells
  number of proteins consistently and significantly modified of over 950: 6
Rab6; 3T3 and PMA/ionomycin-stimulated spleen cells, overnight
  Rab6 expression: suppressed Rab6 expression
Rab6; immunocytochemistry, even after 18 hrs
  Rab6 staining: not diminished nor significantly altered

Source: US20050256179A1, “Selective pharmacologic inhibition of protein trafficking and related methods of treating human diseases” (priority 2003, published 2005)
